{
  "source": "patent US10618903B2",
  "about": "“Heteroaryl substituted aminopyridine compounds” (BRISTOL-MYERS SQUIBB COMPANY, priority 2015, dated 2020)",
  "data": [
    {"biological_target": "IRAK4 (Homo sapiens (Human), UniProt Q9NWZ3)", "sequence (Q9NWZ3 whole entry)": "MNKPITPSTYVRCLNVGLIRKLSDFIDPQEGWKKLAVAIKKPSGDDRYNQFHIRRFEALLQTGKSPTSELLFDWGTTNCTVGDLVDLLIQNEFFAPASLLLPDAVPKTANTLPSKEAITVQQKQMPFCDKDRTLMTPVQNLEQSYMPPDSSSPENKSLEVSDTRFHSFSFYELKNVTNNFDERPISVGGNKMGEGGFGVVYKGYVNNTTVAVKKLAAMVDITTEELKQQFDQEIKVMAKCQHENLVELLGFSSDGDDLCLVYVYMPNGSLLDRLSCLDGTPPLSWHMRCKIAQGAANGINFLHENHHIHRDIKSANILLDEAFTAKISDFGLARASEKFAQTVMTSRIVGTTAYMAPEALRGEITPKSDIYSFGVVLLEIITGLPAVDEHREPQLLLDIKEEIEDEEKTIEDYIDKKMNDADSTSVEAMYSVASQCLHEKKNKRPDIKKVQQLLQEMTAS", "experiment": "IRAK4 Inhibition Assay", "type": "biochemical", "details": "ATP 500 μM; IRAK4 0.6 nM", "method": "The assays were performed in U-bottom 384-well plates. The final assay volume was 30 μL prepared from 15 μL additions of enzyme and substrates (fluoresceinated peptide and ATP) and test compounds in assay buffer (20 mM HEPES pH 7.2, 10 mM MgCl2, 0.015% Brij 35 and 4 mM DTT). The reaction was initiated by the combination of IRAK4 with substrates and test compounds. The reaction mixture was incubated at room temperature for 60 min. and terminated by adding 45 μL of 35 mM EDTA to each sample. The reaction mixture was analyzed on the Caliper LABCHIP® 3000 (Caliper, Hopkinton, Mass.) by electrophoretic separation of the fluorescent substrate and phosphorylated product. Inhibition data were calculated by comparison to no enzyme control reactions for 100% inhibition and vehicle-only reactions for 0% inhibition. The final concentrations of reagents in the assays are ATP, 500 μM; FL-IPTSPITTTYFFFKKK peptide 1.5 μM; IRAK4, 0.6 nM; and DMSO, 1.6%.", "units": {"IC50": "nM"}, "values": [
      {"smiles": "CC(C)(O)[C@H](F)CNC(=O)c1cnc(-c2cnn3cc(C#N)cnc23)cc1NC1CCCC1O", "note": "(stereo partly drawn) [Example 103, 6-(6-cyanopyrazolo[1,5-a]pyrimidin-3-yl)-N—((R)-2-fluoro-3-hydroxy-3-methylbutyl)-4-((2-hydroxycyclopentyl)amino)nicotinamide]", "IC50": 44},
      {"smiles": "C[C@@H](CO)Nc1cc(-c2cnc3cccnn23)ncc1C(=O)NC[C@@H](F)C(C)(C)O", "note": "[Example 136, N—((R)-2-fluoro-3-hydroxy-3-methylbutyl)-4-(((S)-1-hydroxypropan-2-yl)amino)-6-(imidazo[1,2-b]pyridazin-3-yl)nicotinamide]", "IC50": 19},
      {"smiles": "CC(C)Nc1cc(-c2cnn3cc(Cl)cnc23)ncc1C(=O)N[C@H]1CC[C@H](NC(=O)C(C)(C)O)CC1", "note": "[Example 78, 6-(6-chloropyrazolo[1,5-a]pyrimidin-3-yl)-N-((1r,4r)-4-(2-hydroxy-2-methylpropanamido)cyclohexyl)-4-(isopropylamino)nicotinamide]", "IC50": 29},
      {"smiles": "CC(C)Nc1cc(-c2cnn3cc(Cl)cnc23)ncc1C(=O)NCC(F)C1(O)COC1", "note": "(centres unmarked) [Example 9, 6-(6-chloropyrazolo[1,5-a]pyrimidin-3-yl)-N-(2-fluoro-2-(3-hydroxyoxetan-3-yl)ethyl)-4-(isopropylamino)nicotinamide]", "IC50": 5},
      {"smiles": "CC(C)Nc1cc(-c2cnn3cc(Cl)cnc23)ncc1C(=O)NCCC1(O)CCC(C)(O)CC1", "note": "(centres unmarked) [Example 55, 6-(6-chloropyrazolo[1,5-a]pyrimidin-3-yl)-N-(2-(1,4-dihydroxy-4-methylcyclohexyl)ethyl)-4-(isopropylamino)nicotinamide]", "IC50": 9},
      {"smiles": "CC(C)(O)[C@H](F)CNC(=O)c1cnc(-c2cnn3cc(Cl)cnc23)cc1NCC1(O)COC1", "note": "[Example 39, (R)-6-(6-chloropyrazolo[1,5-a]pyrimidin-3-yl)-N-(2-fluoro-3-hydroxy-3-methylbutyl)-4-(((3-hydroxyoxetan-3-yl)methyl)amino)nicotinamide]", "IC50": 18},
      {"smiles": "C[C@H](Nc1cc(-c2cnn3cc(C#N)cnc23)ncc1C(=O)NC[C@@H](F)C(C)(C)O)C(C)(C)O", "note": "[Example 100, 6-(6-cyanopyrazolo[1,5-a]pyrimidin-3-yl)-N—((R)-2-fluoro-3-hydroxy-3-methylbutyl)-4-(((S)-3-hydroxy-3-methylbutan-2-yl)amino)nicotinamide]", "IC50": 94},
      {"smiles": "CC(C)(O)[C@H](F)CNC(=O)c1cnc(-c2cnn3cc(Cl)cnc23)cc1N[C@H]1C[C@H](C(C)(C)O)C1", "note": "[Example 59, 6-(6-chloropyrazolo[1,5-a]pyrimidin-3-yl)-N—((R)-2-fluoro-3-hydroxy-3-methylbutyl)-4-(((1r,3R)-3-(2-hydroxypropan-2-yl)cyclobutyl)amino)nicotinamide]", "IC50": 6},
      {"smiles": "CC(C)(O)[C@H](F)CNC(=O)c1cnc(-c2cnc3ccc(NCCO)nn23)cc1NC1COC1", "note": "[Example 140, (R)—N-(2-fluoro-3-hydroxy-3-methylbutyl)-6-(6-((2-hydroxyethyl)amino)imidazo[1,2-b]pyridazin-3-yl)-4-(oxetan-3-ylamino)nicotinamide]", "IC50": 6},
      {"smiles": "CC(C)(O)[C@H](F)CNC(=O)c1cnc(-c2cnn3cc(Cl)cnc23)cc1NC1CCOC1", "note": "(stereo partly drawn) [Example 54, 6-(6-chloropyrazolo[1,5-a]pyrimidin-3-yl)-N—((R)-2-fluoro-3-hydroxy-3-methylbutyl)-4-((tetrahydrofuran-3-yl)amino)nicotinamide]", "IC50": 3},
      {"smiles": "CC(C)Nc1cc(-c2cnc3ccc(N4CC[C@@H](O)C4)nn23)ncc1C(=O)NC[C@@H](F)C(C)(C)O", "note": "[Example 152, N—((R)-2-fluoro-3-hydroxy-3-methylbutyl)-6-(6-((R)-3-hydroxypyrrolidin-1-yl)imidazo[1,2-b]pyridazin-3-yl)-4-(isopropylamino)nicotinamide]", "IC50": 29},
      {"smiles": "C[C@@H](CO)Nc1cc(-c2cnc3cccnn23)ncc1C(=O)NCCC(C)(C)O", "note": "[Example 137, (S)—N-(3-hydroxy-3-methylbutyl)-4-((1-hydroxypropan-2-yl)amino)-6-(imidazo[1,2-b]pyridazin-3-yl)nicotinamide]", "IC50": 75},
      {"smiles": "CC(C)Nc1cc(-c2cnn3cc(Cl)cnc23)ncc1C(=O)N[C@H]1CC[C@H](C(=O)NC(C)C)CC1", "note": "[Example 29, 6-(6-chloropyrazolo[1,5-a]pyrimidin-3-yl)-4-(isopropylamino)-N-((1r,4r)-4-(isopropylcarbamoyl)cyclohexyl)nicotinamide]", "IC50": 24},
      {"smiles": "CC(C)Nc1cc(-c2cnn3cc(Cl)cnc23)ncc1C(=O)NCC(=O)N1CCC2(CCO2)CC1", "note": "[Example 63, 6-(6-chloropyrazolo[1,5-a]pyrimidin-3-yl)-4-(isopropylamino)-N-(2-oxo-2-(1-oxa-7-azaspiro[3.5]nonan-7-yl)ethyl)nicotinamide]", "IC50": 8},
      {"smiles": "CC(C)Nc1cc(-c2cnc(-c3cccc(C#N)c3)o2)ncc1C(=O)NC[C@@H](F)C(C)(C)O", "note": "[Example 155, (R)-6-(2-(3-cyanophenyl)oxazol-5-yl)-N-(2-fluoro-3-hydroxy-3-methylbutyl)-4-(isopropylamino)nicotinamide]", "IC50": 55},
      {"smiles": "CC(C)Nc1cc(-c2cnn3cc(Cl)cnc23)ncc1C(=O)NCCC(=O)N1CCOCC1", "note": "[Example 62, 6-(6-chloropyrazolo[1,5-a]pyrimidin-3-yl)-4-(isopropylamino)-N-(3-morpholino-3-oxopropyl)nicotinamide]", "IC50": 47},
      {"smiles": "CC(C)Nc1cc(-c2cnn3cc(Cl)cnc23)ncc1C(=O)NCC(F)C(O)(CO)CO", "note": "(centres unmarked) [Example 8, 6-(6-chloropyrazolo[1,5-a]pyrimidin-3-yl)-N-(2-fluoro-3,4-dihydroxy-3-(hydroxymethyl)butyl)-4-(isopropylamino)nicotinamide]", "IC50": 24},
      {"smiles": "COC1CCC(O)(CCNC(=O)c2cnc(-c3cnn4cc(Cl)cnc34)cc2NC2COC2)CC1", "note": "(centres unmarked) [Example 79, 6-(6-chloropyrazolo[1,5-a]pyrimidin-3-yl)-N-(2-(1-hydroxy-4-methoxycyclohexyl)ethyl)-4-(oxetan-3-ylamino)nicotinamide]", "IC50": 14},
      {"smiles": "CC(C)(O)[C@H](F)CNC(=O)c1cnc(-c2cnc3cccnn23)cc1NC1CCOCC1", "note": "[Example 132, (R)—N-(2-fluoro-3-hydroxy-3-methylbutyl)-6-(imidazo[1,2-b]pyridazin-3-yl)-4-((tetrahydro-2H-pyran-4-yl)amino)nicotinamide]", "IC50": 9},
      {"smiles": "CC(C)Nc1cc(-c2cnn3cc(Cl)cnc23)ncc1C(=O)N[C@@H]1CC[C@@H](CO)OC1", "note": "[Example 77, 6-(6-chloropyrazolo[1,5-a]pyrimidin-3-yl)-N-((3R,6S)-6-(hydroxymethyl)tetrahydro-2H-pyran-3-yl)-4-(isopropylamino)nicotinamide]", "IC50": 99},
      {"smiles": "CC(C)(O)[C@H](F)CNC(=O)c1cnc(-c2cnn3cc(C#N)cnc23)cc1N[C@@H]1CCN(c2cncnc2)C1", "note": "[Example 119, 6-(6-cyanopyrazolo[1,5-a]pyrimidin-3-yl)-N—((R)-2-fluoro-3-hydroxy-3-methylbutyl)-4-(((R)-1-(pyrimidin-5-yl)pyrrolidin-3-yl)amino)nicotinamide]", "IC50": 9},
      {"smiles": "CC(C)(O)[C@H](F)CNC(=O)c1cnc(-c2cnn3cc(Cl)cnc23)cc1N[C@@H]1CCN(c2ncc(F)cn2)C1", "note": "[Example 36, 6-(6-chloropyrazolo[1,5-a]pyrimidin-3-yl)-N—((R)-2-fluoro-3-hydroxy-3-methylbutyl)-4-(((R)-1-(5-fluoropyrimidin-2-yl)pyrrolidin-3-yl)amino)nicotinamide]", "IC50": 5},
      {"smiles": "CC(C)Nc1cc(-c2cnc3ccc(N)nn23)ncc1C(=O)NC[C@@H](F)C(C)(C)O", "note": "[Example 150, (R)-6-(6-aminoimidazo[1,2-b]pyridazin-3-yl)-N-(2-fluoro-3-hydroxy-3-methylbutyl)-4-(isopropylamino)nicotinamide]", "IC50": 12},
      {"smiles": "CC1(CNc2cc(-c3cnn4cc(Cl)cnc34)ncc2C(=O)NC[C@@H](F)C(C)(C)O)COC1", "note": "[Example 38, (R)-6-(6-chloropyrazolo[1,5-a]pyrimidin-3-yl)-N-(2-fluoro-3-hydroxy-3-methylbutyl)-4-(((3-methyloxetan-3-yl)methyl)amino)nicotinamide]", "IC50": 7},
      {"smiles": "CC(C)(O)[C@H](F)CNC(=O)c1cnc(C2=C3N=CC(C#N)C=C3N=N2)cc1N[C@@H]1CCCN(C(=O)CC(F)(F)F)C1", "note": "(stereo partly drawn) [Example 108, 6-(6-cyano-6H-pyrazolo[4,3-b]pyridin-3-yl)-N—((R)-2-fluoro-3-hydroxy-3-methylbutyl)-4-(((R)-1-(3,3,3-trifluoropropanoyl)piperidin-3-yl)amino)nicotinamide]", "IC50": 67},
      {"smiles": "CNC(=O)[C@H]1CC[C@H](NC(=O)c2cnc(-c3cnn4cc(C#N)cnc34)cc2NC(C)C)CC1", "note": "[Example 88, 6-(6-cyanopyrazolo[1,5-a]pyrimidin-3-yl)-4-(isopropylamino)-N-((1r,4r)-4-(methylcarbamoyl)cyclohexyl)nicotinamide]", "IC50": 34},
      {"smiles": "CNC(=O)Cn1cc(NC(=O)c2cnc(-c3cnn4cc(Cl)cnc34)cc2NC(C)C)cn1", "note": "[Example 45, 6-(6-chloropyrazolo[1,5-a]pyrimidin-3-yl)-4-(isopropylamino)-N-(1-(2-(methylamino)-2-oxoethyl)-1H-pyrazol-4-yl)nicotinamide]", "IC50": 34},
      {"smiles": "CC(C)(O)[C@H](F)CNC(=O)c1cnc(-c2cnn3cc(C#N)cnc23)cc1NCC1(O)CCCOC1", "note": "(single isomer, unassigned) [Example 122]", "IC50": 30},
      {"smiles": "COc1cnn2c(-c3cc(NC(C)C)c(C(=O)NC[C@@H](F)C(C)(C)O)cn3)cnc2c1", "note": "[Example 153, (R)—N-(2-fluoro-3-hydroxy-3-methylbutyl)-4-(isopropylamino)-6-(7-methoxyimidazo[1,2-b]pyridazin-3-yl)nicotinamide]", "IC50": 13}
    ]}
  ]
}
